# Source: patent US20220306623A1, “PYRIDYL OR PYRIMIDYL MTOR KINASE INHIBITORS” (GLAXOSMITHKLINE INTELLECTUAL PROPERTY DEVELOPMENT LIMITED, priority 2019, published 2022)
# Test system: phosphorylated Akt at serine 473 (pAKTs473) in primary lung fibroblasts derived from explanted tissue
# Experiment: Phosphorylated Akt (Ser473) in vitro immunoassay (MSD), fibroblasts from explanted tissue
# Type: cell-based
# Settings: Homo sapiens, Primary lung fibroblast, 96-well, compound 2 h, PDGF-BB 10 ng/ml 15 min, read-out: mean pIC50, pAKTs473 immunoassay (converted)
# From the text: Immunoassay using the Meso Scale Discovery (MSD) platform to measure the effect of test compounds on phosphorylated Akt at serine 473 (pAKTs473) in primary lung fibroblasts derived from explanted tissue. The human biological samples were sourced ethically and their research use was in accord with the terms of the informed consents under an IRB/EC approved protocol.
# Human lung fibroblasts were routinely maintained in Dulbecco's Modified Eagle Medium (DMEM; Gibco, catalogue no. 21969-035) supplemented with 10% foetal bovine serum (FBS (heat-inactivated); Gibco, catalogue no. 10270-106) and 4 mM L-glutamine (Gibco, catalogue no. 25030024) at 37° C. in 10% CO2.
# For the assay, cells were harvested using Trypsin/EDTA (Gibco, catalogue no. 25300-062), resuspended to give 1.2×10^5 cells/ml and 100 ul/well seeded into 96-well plates (Corning, Catalogue No. 3596) in DMEM supplemented with 0.4% FCS and 4 mM L-glutamine and incubated overnight at 37° C. in 10% CO2.
# Test compounds were dissolved in 100% DMSO to give 10 mM stock solutions and serially diluted to generate a 10-point concentration response curve. Compounds were further diluted 100-fold into 96-well V-bottom polypropylene plates (Greiner, Catalogue no. 651201) with DMEM supplemented with 0.4% FCS and 4 mM L-glutamine to give 100 µM top compound concentration in 1% DMSO.
# Compounds were further diluted 10-fold by transfer to 96-well plates containing cells ([…] top concentration, 0.1% DMSO final) and incubated for 2 h at 37° C. in 10% CO2, prior to stimulation with platelet-derived growth factor (PDGF)-BB (Gibco, Catalogue no. PHG0041) at 10 ng/ml (final) for 15 min at 37° C. in 10% CO2. Cell assay plates were then incubated on ice and treated with lysis buffer (Cell Signalling Technology, Catalogue No. 9803) containing protease and phosphatase inhibitors (Halt, Thermo Scientific, Catalogue No. 78444) for 30 min.
# MSD plates (MSD, Phospho(Ser473)/Total Akt Whole Cell Lysate Kit, Catalogue No. K15100D-3) were blocked with 1×blocking buffer as per the manufacturer's instructions at RT with shaking, followed by washing (×3) with Tris-buffered saline containing 0.05% Tween-20 (TBST). Cell lysates (30 ul) were added and MSD plates incubated for 1 h at RT with shaking.
# Plates were washed with TBST (×3), prior to addition of SULFO-TAG Anti-Total Akt Antibody as per the manufacturer's instructions and shaken at RT for 1 h. After washing with 1×TBST (×3), read buffer (1×) (MSD, Catalogue No. R92TC-1) was added as per the manufacturer's instructions before detecting electrochemiluminescence (MSD Sector Imager 600).
# Data analysis was performed using non-linear regression analysis to determine IC50 values for test compounds. Minimum (no PDGF-BB stimulation) and maximum responses (+PDGF-BB stimulation) were monitored for assay quality control.
row,SMILES,IC50 [µM]
1,"CC[C@H]1COCCN1c1cc(CS(N)(=O)=O)nc(-c2ccc3[nH]c(CNC)cc3n2)n1 [Example 6, {6-[(3S)-3-ethylmorpholin-4-yl]-2-{2-[(methylamino)methyl]-1H-pyrrolo[3,2-b]pyridin-5-yl}pyrimidin-4-yl}methanesulfonamide]",< 0.1
2,"CC[C@H]1COCC(=O)N1c1cc(CS(C)(=O)=O)cc(-c2ccc3[nH]c(C)cc3n2)n1 [Example 24, (S)-5-ethyl-4-(6-(2-methyl-1H-pyrrolo[3,2-b]pyridin-5-yl)-4-((methylsulfonyl)methyl)pyridin-2-yl)morpholin-3-one]",< 0.1
3,"CCc1cc2nc(-c3nc(CS(C)(=O)=O)cc(N4C(=O)COC[C@@H]4CC)n3)ccc2[nH]1 [Example 15, (5S)-5-ethyl-4-(2-{2-ethyl-1H-pyrrolo[3,2-b]pyridin-5-yl}-6-(methanesulfonylmethyl)pyrimidin-4-yl)morpholin-3-one]",< 0.1
4,"CC[C@H]1COCCN1c1cc(CS(C)(=O)=O)nc(-c2ccc3[nH]c(CNC)cc3n2)n1 [Example 1, [(5-{4-[(3S)-3-ethylmorpholin-4-yl]-6-(methanesulfonylmethyl)pyrimidin-2-yl}-1H-pyrrolo[3,2-b]pyridin-2-yl)methyl](methyl)amine]",< 0.1

# Test system: type I collagen deposition in primary lung fibroblasts derived from human tissue
# Experiment: Type I collagen deposition (scar-in-a-jar) high content screening assay
# Type: cell-based
# Settings: Primary lung fibroblast, 72 h, human pulmonary fibroblasts, 96-well, TGFβ-1 1 ng/ml 72 h, collagen intensity, read-out: mean pIC50, type I collagen deposition (scar-in-a-jar) (converted)
# Protocol: Cellular type I collagen deposition was measured by adapting a published method; scar-in-a-jar (Chen et al., 2009) to primary lung fibroblasts derived from human tissue and combining with high content analysis to permit fluorescent quantification of collagen deposited in the extracellular matrix (ECM). The human biological samples were sourced ethically and their research use was in accord with the terms of the informed consents under an IRB/EC approved protocol. Human pulmonary fibroblasts were maintained in DMEM media (Gibco, Catalogue No 21969) supplemented with 4 mM L-glutamine (Gibco Catalogue No 25030-024) and 100/heat inactivated FBS (Gibco #10270-106, Lot #42F6663K) at 37° C. in 10%/CO2. Cells were harvested and seeded at 10,000 cells per well (85 μL/well) into black walled 96 well imaging plates (BD Falcon, 353219) in assay media (0.4%/heat inactivated FBS, 4 mM L-glutamine) and incubated overnight at 37° C., 10%/CO2.
# Test compounds were dissolved in 1000/DMSO to give 10 mM stocks which were further diluted (serial 1:3) to generate 10 point concentration response curves. Assay media was supplemented with 112.5 mg/ml Ficoll 70 (Sigma, Catalogue No F2878), 75 mg/ml Ficoll 400 (Sigma, Catalogue No F4375) and 50 µg/ml ascorbic acid (Sigma, Catalogue No A8960). 3 μL compound were added to 297 μL assay media (10× compound final concentration in 1% DMSO).
# Diluted compounds (15 μL) were transferred to plates containing cells and incubated for 3 h at 37° C. in 10% CO2. Transforming growth factor (TGF)β-1 (R&D Systems, Catalogue No 100-B/CF) was reconstituted according to manufacturer's instructions to give 10 µg/mL (stock) and further diluted (1 in 3333) in assay media containing Ficoll and ascorbic acid. 50 μL TGFβ-1 was added to cell plates (1 ng/ml final) and cells incubated for 72 h at 37° C. in 10% CO2.
# Media was removed and cells were fixed with 50 µL/well 100% ice-cold methanol (2 min). Methanol was decanted and cells washed with PBS (3×). To permeabilise, cells were incubated with PBS containing 0.1% Triton X 100 for 90 sec, followed by PBS wash (3×). Cells were incubated with mouse anti human type I collagen monoclonal antibody (Sigma, Catalogue No C2456) diluted 1:1000 in PBS overnight at 4° C. Cells were washed with PBS containing 0.05% Tween-20 (3×) and incubated with secondary alexa fluor 488 goat-anti-mouse antibody (Invitrogen, Catalogue No A11001, 1 in 500 in PBS) and Hoechst 33342 (Sigma, Catalogue No H21492), 1 in 10000 in PBS) for 1 h at RT, prior to washing with PBS containing 0.05% Tween (×3) before finally adding 200 µL/well PBS.
# Type I collagen immunoreactivity was detected using the Thermofisher CellInsight NXT set to excitation and emission wavelengths for DAPI and FITC with exposure adjusted to appropriate levels. Images were analysed using Cellomics Studio software (Version 6.6.0, build 8153) and computational algorithms to quantify “collagen intensity” and “cell count”.
# Data analysis was performed by determining % response values for test compounds relative to the maximum (TGFβ-1 stimulation) fitting a ‘log(inhibitor) vs. response-Variable slope (four parameters)’ curve and recording pIC50 (inverse of Log IC50) values for test compounds.
row,SMILES,IC50 [µM]
1,"CC[C@H]1COCCN1c1cc(CS(N)(=O)=O)nc(-c2ccc3[nH]c(CNC)cc3n2)n1 [Example 6, {6-[(3S)-3-ethylmorpholin-4-yl]-2-{2-[(methylamino)methyl]-1H-pyrrolo[3,2-b]pyridin-5-yl}pyrimidin-4-yl}methanesulfonamide]",> 3.98
2,CC[C@H]1COCC(=O)N1c1cc(CS(C)(=O)=O)cc(-c2ccc3[nH]c(CO)cc3n2)n1 [Example 27],< 3.98
3,"CC[C@H]1COCCN1c1cc(CS(C)(=O)=O)nc(-c2ccc3[nH]c(CO)cc3n2)n1 [Example 2, (S)-(5-(4-(3-ethylmorpholino)-6-((methylsulfonyl)methyl)pyrimidin-2-yl)-1H-pyrrolo[3,2-b]pyridin-2-yl)methanol]",< 3.98
4,"CC[C@H]1COCCN1c1cc(C2(S(C)(=O)=O)CCNCC2)cc(-c2ccc3[nH]c(C)cc3n2)n1 [Example 18, (S)-3-ethyl-4-(6-(2-methyl-1H-pyrrolo[3,2-b]pyridin-5-yl)-4-(4-(methylsulfonyl)piperidin-4-yl)pyridin-2-yl)morpholine]",< 3.98
5,"CNCc1cc2nc(-c3cc(CS(C)(=O)=O)cc(N4CCO[C@H](C)[C@H]4C)n3)ccc2[nH]1 [Example 8, 1-(5-(6-((2R,3R)-2,3-dimethylmorpholino)-4-((methylsulfonyl)methyl)pyridin-2-yl)-1Hpyrrolo[3,2-b]pyridin-2-yl)-Nmethylmethanamine]",< 3.98
6,"CC[C@H]1COCCN1c1cc(C2(S(C)(=O)=O)CCOCC2)nc(-c2ccc3[nH]c(CO)cc3n2)n1 [Example 4, (5-{4-[(3S)-3-ethylmorpholin-4-yl]-6-(4-methanesulfonyloxan-4-yl)pyrimidin-2-yl}-1H-pyrrolo[3,2-b]pyridin-2-yl)methanol]",> 3.98
